Laboratory results taken from paper PMC12282258, “Understanding the substrate recognition and catalytic mechanism of 2-O-methyl fucosidases from glycoside hydrolase family 139” (The Journal of Biological Chemistry, 2025).

Molecular target: T1, BT0984^GH139 (Bacteroides thetaiotaomicron, UniProt Q8A933)
T1 construct: gene BT_0984; full-length gene in pET28a (NheI/XhoI), N-terminal His6 tag, expressed in E. coli BL21(DE3) or TUNER; cobalt IMAC purified
T1 sequence (Q8A933 1-803): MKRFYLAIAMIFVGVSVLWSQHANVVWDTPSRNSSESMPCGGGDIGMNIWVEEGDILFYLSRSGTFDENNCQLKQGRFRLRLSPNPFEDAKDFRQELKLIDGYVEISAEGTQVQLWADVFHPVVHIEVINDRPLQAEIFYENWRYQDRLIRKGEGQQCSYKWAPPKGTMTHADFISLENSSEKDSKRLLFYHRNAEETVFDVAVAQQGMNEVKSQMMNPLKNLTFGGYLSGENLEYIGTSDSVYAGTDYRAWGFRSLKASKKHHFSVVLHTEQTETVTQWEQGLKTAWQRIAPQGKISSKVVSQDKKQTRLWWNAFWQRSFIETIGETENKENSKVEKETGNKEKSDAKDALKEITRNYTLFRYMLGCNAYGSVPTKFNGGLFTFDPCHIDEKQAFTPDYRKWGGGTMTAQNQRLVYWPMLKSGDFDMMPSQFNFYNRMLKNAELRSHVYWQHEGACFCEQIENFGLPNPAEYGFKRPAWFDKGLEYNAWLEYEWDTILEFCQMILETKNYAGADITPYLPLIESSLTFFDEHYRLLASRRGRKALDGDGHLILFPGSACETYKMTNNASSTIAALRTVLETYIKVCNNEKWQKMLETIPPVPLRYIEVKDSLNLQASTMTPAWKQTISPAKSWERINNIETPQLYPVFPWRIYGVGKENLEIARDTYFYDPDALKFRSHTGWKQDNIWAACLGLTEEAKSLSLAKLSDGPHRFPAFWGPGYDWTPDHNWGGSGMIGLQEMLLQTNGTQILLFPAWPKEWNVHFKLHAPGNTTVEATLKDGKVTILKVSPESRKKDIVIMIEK
Assay: thin layer chromatography
Type: biochemical
Conditions: 1 μM enzyme, 10 mM MOPS pH 7.0, 150 mM NaCl, 37 °C; slow

## CO[C@@H]1[C@H](Oc2ccc([N+](=O)[O-])cc2)O[C@@H](C)[C@@H](O)[C@H]1O [4NP-MeFuc, 4-nitrophenyl-2-O-methyl-α-L-fucopyranoside]
  thin layer chromatography: displayed activity on 4-nitrophenyl 2-O-methyl-α-L-fucoside (4NP-MeFuc)
